Experiments:
[1] = tested on: alloxan-induced diabetic rat model; experiment: Serum lipid profile (CH, TG, HDL, LDL, VLDL) in alloxan-induced diabetic rats; assay type: in vivo, Albino male Wistar rats; conditions: 50 mg/Kg; for Serum CH (cholesterol) level: all experimental times
Protocol: The blood samples (0.5 mL) were withdrawn from each rat using the retro-orbital plexus and the other steps for biochemical analysis were adapted. (Supplementary Materials).
The serious side effect related to diabetes is hyperlipidemia. The insulin deficiency promotes adipocytes to generate fatty acid, hepatic phospholipids and cholesterol. Thus, the levels of cholesterol (CH), triglyceride (TG), high (HDL), low (LDL) and very low (VLDL) density lipoproteins, in serum for alloxan-loaded diabetes have been measured at 50 mg/Kg concentration (Figure 7). All lipid parameters for all tested compounds have (p < 0.05) compared to the diabetic control group (Figure 7).
Figure 7 The level of (A) CH (Cholesterol); (B) TG (Triglyceride); (C) HDL (High density lipoprotein); (D) LDL (Low density lipoprotein) and (E) VLDL (Very low density lipoprotein) in serum of hyperglycemic loaded rats. […] Data analyzed by one way ANOVA followed by LSD test and expressed as mean ± SEM from five observations. […]
glucose level of rats was determined using glucose strips. Rats with plasma glucose concentration N 300 mg/dl (Gadadare et al., 2015) were considered diabetic and included […]
The blood samples (0.5 ml) were withdrawn from the retro-orbital plexus of each rat under mild anesthesia using a glass capillary tube after fasting for 6 h. Blood samples were centrifuged at 3000 rpm for 15 min. The serum was kept at −80 °C until analyzed. Speciﬁc reagent kits were used to determine levels of serum triglyceride (TG), serum cholesterol (CH), serum low density lipoproteins (LDL), serum high density lipoproteins (HDL) for assessing the lipid proﬁle.
Data are expressed as mean ± S.E. Data analysis was done using one way analysis of variance (ANOVA) followed by least significant difference (LSD) test for multiple comparisons. Difference was considered significant when p is less than 0.05. SPSS (version 11) program was used to carry out

[2] = tested on: alloxan-induced diabetic rat model; experiment: Oral anti-hyperglycemic activity, blood glucose level in alloxan-induced diabetic rat model; assay type: in vivo, Albino male Wistar rats
Protocol: Albino male Wistar rats (150 ± 20 g) were obtained. (Supplementary Materials).
The animals were kept fasting overnight (12 h) before induction of diabetes. Diabetes was induced in rats as reported and (Supplementary Materials).
Blood samples were obtained from the tail vein of all rats, the blood glucose levels (BGLs) were measured and monitored in all treatment groups at days 0 (basal), 2, 4, 15 and 30 as reported.
Oral anti-hyperglycemic activity was evaluated for compounds 4–7 by an alloxan-induced diabetic rat model. […] The BGL was monitored for each tested compound at three different doses (50,100 and 250 mg/Kg) and for five experimental period durations (0, 2, 4, 15, 30 days). […]
The animals were kept fasting overnight (12 h) before induction of diabetes. […]

[3] = Radical scavenging by DPPH method; conditions: DPPH assay
Protocol: The assay of 2,2-Diphenyl-1-picrylhydrazyl radical (DPPH) was performed according to the method at.
The antioxidant activity was examined for the hybrids (4–7) using the stable DPPH assay. The antioxidant results from different concentrations (0.16, 0.8, 4, 20, 40, 200 and 1000 µg/mL) were represented in Figure 5 as IC50 value (concentration of compound is essential for rising 50% of reducing power for H-donating or radical scavenging). The effect of the scavenging is rising in the trend 4 > 5 > 6 > STD > 7. […] After blocking the hydrazide group by aldehyde motifs in compounds 6 and 7, the activity was decreased. High scavenging activity may be due to the stabilization of the lone pair in the conjugated system by the presence of terminal ester or hydrazide.

[4] = biological target: α-amylase enzyme; experiment: In vitro inhibition of α-amylase assay; assay type: biochemical; conditions: six concentrations 5-40 µg/mL, non-linear regression; read-out: IC50 against α-amylase enzyme (converted)
α-amylase enzyme, sequence (P04746 16-511): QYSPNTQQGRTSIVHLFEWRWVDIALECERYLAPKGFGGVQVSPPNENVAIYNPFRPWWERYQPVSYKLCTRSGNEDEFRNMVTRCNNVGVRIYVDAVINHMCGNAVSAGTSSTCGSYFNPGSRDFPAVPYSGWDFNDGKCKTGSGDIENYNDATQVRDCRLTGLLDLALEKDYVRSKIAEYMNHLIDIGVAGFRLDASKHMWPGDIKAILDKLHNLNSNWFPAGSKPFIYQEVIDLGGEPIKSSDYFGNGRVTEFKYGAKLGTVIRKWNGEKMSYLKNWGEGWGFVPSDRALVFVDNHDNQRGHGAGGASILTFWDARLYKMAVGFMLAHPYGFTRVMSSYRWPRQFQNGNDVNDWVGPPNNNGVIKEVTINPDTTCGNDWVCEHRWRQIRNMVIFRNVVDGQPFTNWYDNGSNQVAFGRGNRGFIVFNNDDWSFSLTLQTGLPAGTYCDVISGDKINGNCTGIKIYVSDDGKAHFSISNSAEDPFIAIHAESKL
Protocol: - inhibition in-vitro of α-Amylase assay:
The α-amylase activity of the compounds were determined using a method in which 250 μL of each compound, or Metformin .HCl, dissolved in ethanol to obtain different concentrations (5, 10, 15, 20,30 and 40 μg/mL ), was mixed with 500 μL of α-amylase (2 U/mL ) in phosphate buffer (100 mM, pH 6.8) and incubated at 37 °C for 10 min. Thereafter, 50 μL
(1 picture or pasted object on this page, not shown here) […]
of 1% starch, dissolved in the same buffer, was added to the mixture and the samples were incubated again at 37 °C. After 30 min, dinitrosalicylic acid (DNS) colour reagent (1 mL) was added. The (DNS) was prepared by adding 437mg of 3,5- dinitro salicylic acid in 20 mL distilled water to12 g of sodium potassium tartrate in 8 mL of 2 M NaOH, then added distilled water until the solution reach to 40 mL ). the samples were boiled for 10 min in water bath. For non-enzymatic reactions, the assays were performed with a blank containing all of the components except the enzyme.

5-(Benzo[d][1,3]dioxol-5-ylmethylene)-3-(2-(2,4-dioxo thiazolidin-3-yl) acetyl) thiazolidine-2,4-dione [Compound 6]
Serum CH (cholesterol) level reduction ([1]; 2nd and 4th days): moderate reduction
Serum CH (cholesterol) level reduction ([1]; 15th and 30th days): best reduction of the CH level
Serum VLDL level ([1]; 15th and 30th days): lower than normal value
Blood glucose level (BGL) compared to DC ([2]; 50 mg/Kg, 2nd and 4th days): suffered from controlling the BGL
Blood glucose level (BGL) compared to DC ([2]; 100 mg/Kg, all of the experiments): increased the BGL rather than DC

CCOC(=O)CN1C(=O)SC(=Cc2ccc3c(c2)OCO3)C1=O [Compound 4, Ethyl-2-(5-(benzo[d][1,3]dioxol-5-ylmethylene)-2,4-dioxothiazolidin-3-yl)acetate]
Serum VLDL level, regulation to nearly normal value ([1]; 0th and 15th days): failed to do so
Serum TG (triglyceride) level compared to DC ([1]; 2nd day): failed to regulate the TG level lower than the DC level
Serum VLDL level ([1]; 2nd, 14th and 30th days): nearly normal value
Serum CH (cholesterol) level [1]: moderate regulation of the CH value
Blood glucose level (BGL) compared to DC ([2]; 50 mg/Kg, 2nd, 4th and 15th days): suffered from controlling the BGL
Blood glucose level (BGL) compared to DC ([2]; 100 mg/Kg, 15th and 30th days): significance decrease in the BGL
Blood glucose level (BGL) compared to DC ([2]; 250 mg/Kg, all durations of the experiment): failed to control BGL

NNC(=O)CN1C(=O)SC(=Cc2ccc3c(c2)OCO3)C1=O [Compound 5, 2-(5-(Benzo[d][1,3]dioxol-5-ylmethylene)-2,4-dioxothiazolidin-3-yl)acetohydrazide]
Serum CH (cholesterol) level reduction ([1]; 2nd day): moderate reduction value
Serum CH (cholesterol) level reduction ([1]; 15th and 30th days): best reduction of the CH level
Serum VLDL level ([1]; 15th and 30th days): lower than normal value
Blood glucose level (BGL) compared to DC ([2]; 100 mg/Kg, 15th and 30th days): significance decrease in the BGL
Blood glucose level (BGL) regulation ([2]; 250 mg/Kg, 15th and 30th days): organized the BGL more than 6

COc1ccc(/C=N/NC(=O)CN2C(=O)S/C(=C/c3ccc4c(c3)OCO4)C2=O)cc1 [Compound 7]
Antioxidant (scavenging) activity compared to STD (ascorbic acid) [3]: lower scavenging activity than STD
Serum CH (cholesterol) level [1]: worst CH level from all compounds
IC50 [4]: 130 µM
Blood glucose level (BGL) reduction ([2]; 50 mg/Kg, 15th and 30th days): highest percentage in the BGL reduction
Blood glucose level (BGL) compared to DC ([2]; 100 mg/Kg, 15th and 30th days): insignificant decrease in the BGL
Blood glucose level (BGL) compared to DC ([2]; 250 mg/Kg, 4th, 15th and 30th days): reduced BGL significantly
